Test results taken from patent US20260193298A1, “SYNTHETIC PEPTIDE FOR USE IN AN IMMUNOMOLECULAR ASSAY” (BIOMÉRIEUX, priority 2022, published 2026).
Non-standard residues stand in square brackets, D forms with d. No end group written: not given here. Ado = 8-amino-2,4-dioxa octanoic acid

Tests used:
[1] = test system: 5F12 monoclonal antibody (anti-Lys tag); assay: Indirect ELISA on plates coated with Bitag peptide, detection with anti-Lys tag antibody 5F12; assay type: binding, mouse; conditions: 5 μg versus 1 μg of peptide
Protocol: (§1) Enzyme Linked Immuno-Sorbant Assays (ELISA). After overnight sensitization with peptides diluted at 5 μg/mL in PBS buffer, pH 7.4 (Euromedex, Souffelweyersheim, France), Nunc 96-well plates (Thermofisher) were saturated for 1 h at room temperature (RT) with PBS1x-Bovine Serum Albumin 5% (BSA, Sigma-Aldrich, Saint Louis, MI, USA). After 4 washes with PBS1x-Tween20 0.1%, PBS1x-BSA 1% buffer containing the anti-tag antibody (at 1 μg/mL) was added and incubated for 1 h at 37° C. The developing with PNPP substrates (Thermofisher) was performed after 30 min of incubation at 37° C. with a 1/50 000 dilution in PBS-BSA-0.5% of an alkaline phosphatase (AP)-labeled streptavidin (Jackson Immunoresearch, Ely, UK). The absorbance level (optical density, OD) was red at 405 nm (OD405) using an Infinite M Nano+ microplate reader (Tecan, Mannedorf, Switzerland). All samples were tested in duplicate and in three independent experiments.
Selection and validation of the Bitag peptides and the proximity probes. First, to check that the anti-tag antibodies do bind to their epitopes in the context of the Bitag peptides, indirect ELISA was performed by sensitizing multiwall plates with either Bitag 1 or Bitag 2 peptides at two concentrations (1 μg/mL and 5 μg/mL). […]

[2] = test system: internal control proximity probes (18D12 anti-His tag and 2G4 anti-Lys tag antibodies coupled to MML or MMC oligonucleotides); assay: Dual-recognition immunoassay (PEA) of Bitag peptide spiked in PBS-BSA buffer, qPCR readout; assay type: binding, mouse; conditions: for Delta-Ct0-50: 0 vs 50 ng/mL peptide
Protocol: Proximity probes. Proximity probes were prepared by covalently linking purified PCT monoclonal antibodies to HPLC-purified oligonucleotides. […] Synthesis, modifications and HPLC-purification of the oligonucleotides were all performed by Integrated DNA Technologies (Louvain, Belgium). Antibody-oligonucleotide conjugates were generated using commercial Thunderlink kit (Abcam, Cambridge, UK), following the manufacturer's instructions, using a 5:1 oligonucleotide-to-antibody ratio. Conjugation quality was checked by running conjugates on a reducing 4-12% SDS-PAGE (Thermofisher, Waltham, MA, USA) followed by Coomassie Blue staining (Thermofisher) as recommended by the supplier's instructions (Abcam).
(§2) Proximity Extension Assay (PEA™). The Proximity extension assay protocol and the different buffers were taken over from the protocol initially described by Lundberg et al. and also from a recently developed shorter protocol (unpublished results). Proximity extension assay was performed in specific multi-well plates (Hard-Shell 96-Well Clear shell PCR Plates, BioRad, Hercule, CA, USA), in triplicate. Briefly, 5 μL of sample (PBS1x-0.1% BSA buffer or human EDTA plasma with or without rPCT and/or IC peptide) were mixed with 5 μL of a mix of the two PEA™ conjugates (500 pM each) diluted in the probe incubation buffer and incubated at 37° C. for 60 min. After probe incubation, a dilution buffer containing 40 mM of each dNTP were added. After a 5 minutes incubation step at 37° C., 96 μl extension mix containing 26 U/mL of T4 DNA Polymerase (Thermofisher) were added and incubated at 37° C. for an additional 3 minutes, followed by a heat inactivation step at 80° C.
(§3) Detection by qPCR. For qPCR detection, 4 μL of extension products were transferred to a qPCR plate and mixed with 36 μL of qPCR mix (SYBRGREEN mix, Bio-Rad) containing 0.6 μM of each PCR primer. A one-step qPCR was run with initial denaturation at 95° C. for 3 min, followed by 1 sec of denaturation at 95° C. and 10 sec annealing/extension at 63° C. for 40 cycles. Finally, a melt step was performed by increasing the temperature gradually from 60° C. to 95° C. at 0.5° C./sec.
Second, to determine the best combination of spacer size and oligonucleotide length, proximity probes were tested successively on the two Bitag 1 and Bitag 2 peptides. The first type of probes, called MML, featured a longer version of the oligonucleotides (49 and 56 bases), whilst the second type of probes, called MMC, featured a shorter version of the oligonucleotides (29 and 31 bases). For both MML and MMC, the size of the complementary sequence located at the 3′-end of each oligonucleotide was 9 nucleotides.
FIG. 2 summarizes the dual-recognition immunoassay results obtained for three concentrations of Bitag peptide (0, 5 and 50 ng/mL) spiked in PBS-BSA buffer.

[3] = test system: 2G4 monoclonal antibody (anti-Lys tag); assay: Indirect ELISA on plates coated with Bitag peptide, detection with anti-Lys tag antibody 2G4; assay type: binding, mouse
Protocol: as §1
(§4) Selection and validation of the Bitag peptides and the proximity probes. First, to check that the anti-tag antibodies do bind to their epitopes in the context of the Bitag peptides, indirect ELISA was performed by sensitizing multiwall plates with either Bitag 1 or Bitag 2 peptides at two concentrations (1 μg/mL and 5 μg/mL). For the two coated peptides, 18D12 monoclonal antibody (anti-His tag) or 2G4 and 5F12 monoclonal antibodies (anti-Lys tag) were used for detection with an AP-labelled anti-mouse conjugate.

[4] = test system: 18D12 monoclonal antibody (anti-His tag); assay: Indirect ELISA on plates coated with Bitag peptide, detection with anti-His tag antibody; assay type: binding, mouse
Protocol: as §1, §4

[5] = test system: internal control proximity probes; assay: Procalcitonin and internal control DRI in parallel in PBS-BSA, PCR with internal control primer set; parameters: species or system mouse; conditions: rPCT 0 or 0.1 ng/mL; peptide 0 to 160 ng/mL
Protocol: as §2
as §3, with “Finally, a melt step was performed by increasing the temperature gradually from 60° C. to 95° C. at 0.5° C./sec.” left out

[6] = test system: internal control proximity probes MMC (18D12 and 2G4); assay: Dual-recognition immunoassay (PEA) of Bitag 2 peptide spiked in human plasma, MMC probes; assay type: binding, mouse; conditions: for loss of Delta-Ct in human plasma compared to PBS-BSA: pool of three plasma specimens
Protocol: Whole blood specimens were obtained from healthy donors from the French National Blood Bank (EFS, Etablissement Français du Sang, Lyon, France). Samples were selected on the basis of a negative PCT test. Fresh blood was centrifuged for five min at 20 000 g, at 4° C., using a refrigerated microcentrifuge (Eppendorf 5424R, Montesson, France). After centrifugation, the supernatant, which corresponds to the plasma, was recovered for Dual-recognition immunoassay and stored at 4° C. before use. For all biological samples, informed consent was obtained for any experimentation. All experiments were performed in compliance with the relevant laws and institutional guidelines and in accordance with the ethical standards of the Declaration of Helsinki.
as §2, §3
In order to confirm these preliminary results obtained on peptide diluted in the PBS-BSA buffer, PEA™ was performed, using MMC probes, on human plasma (pool of three plasma specimens) spiked with four concentrations of Bitag 2 peptide, from 0 to 500 ng/mL. The results are illustrated in FIG. 3a. Overall, while the assay presented a similar dynamic to that obtained in PBS-BSA buffer, Delta-Ct values appeared to be slightly lower compared to those obtained in PBS-BSA (loss of 0.26 and 0.36 for 5 ng/mL and 50 ng/mL of peptide, respectively). In addition, for 500 ng/mL, a significant loss of dynamic was observed (Delta-Ct50-500 of 0.9 versus Delta-Ct5-50 of 2.72).
Third, a Bitag 2 concentration suitable for internal control Dual-recognition immunoassay had to be chosen. […] To confirm the specificity of the results obtained with 50 ng/mL of Bitag 2 peptide, human plasma specimens were tested by Dual-recognition immunoassay after addition of 50 ng/mL of peptide (n=25 samples) or without peptide complementation (n=13 samples). According to a Mann-Whitney test, the difference between the two groups was significant (P<0.001).

procalcitonin (rPCT) [7] = assay: Procalcitonin and internal control DRI in parallel in PBS-BSA, PCR with primers specific of the PCT DRI probes; parameters: species or system human; conditions: 0 ng/mL PCT, PCT primer set
Protocol: as §2
as §3, with “Finally, a melt step was performed by increasing the temperature gradually from 60° C. to 95° C. at 0.5° C./sec.” left out

[8] = test system: internal control proximity probes; assay: Internal control dual-recognition immunoassay in human plasma specimens spiked with rPCT and Bitag peptide; assay type: binding, mouse; conditions: Bitag peptide at 50 ng/mL
Protocol: as §2
as §3, with “Finally, a melt step was performed by increasing the temperature gradually from 60° C. to 95° C. at 0.5° C./sec.” left out

procalcitonin (rPCT) [9] = assay: Interference of Bitag 2 peptide with procalcitonin dual-recognition immunoassay in PBS-BSA buffer; parameters: species or system human
Protocol: as §2, §3
Interference between procalcitonin and internal control. […] The results are illustrated in FIG. 4. For 0.1 ng/mL of rPCT, no significant difference was observed across the range of peptide concentrations added to the sample (mean=34.38±0.15).

Sequence: MRGSHHHHHHNNGKKKKKKSV (MRGSHHHHHH[Ado][Ado]GKKKKKKSV-NH2) [Bitag 1, His tag and Lys tag separated by two Ado spacers; N is 8-amino-2,4-dioxa octanoic acid]
- increase of OD405 for 5 μg of peptide [1]: +0.074
- Delta-Ct for MMC compared with MML probes ([2]; PBS-BSA buffer): higher
- OD405 ([3]; 1 μg of Bitag 1 peptide, detection with 2G4): 0.993
- increase of OD405 for 5 μg of peptide ([3]; 5 μg versus 1 μg of peptide, 2G4): +0.089
- signal in the presence of peptide relative to signal without peptide ([3]; 2G4 antibody, 5 μg of Bitag 1): 9.17 times
- OD405 ([4]; 1 μg of Bitag 1 peptide, detection with 18D12): 0.617
- increase of OD405 for 5 μg of peptide ([4]; 5 μg versus 1 μg of peptide, 18D12): +0.262
- signal in the presence of peptide relative to signal without peptide ([4]; 18D12 antibody, 1 μg of Bitag 1): 5.42 times

Sequence: MRGSHHHHHHNNNGKKKKKKSV (MRGSHHHHHH[Ado][Ado][Ado]GKKKKKKSV-NH2) [Bitag 2, His tag and Lys tag separated by 3 Ado spacers; N is 8-amino-2,4-dioxa octanoic acid]
- interference of procalcitonin on Ct with internal control PCR primer set [5]: no interference
- gain in Delta-Ct for MMC versus MML ([2]; 5 ng/mL of peptide, PBS-BSA buffer): 2.32
- gain in Delta-Ct for MMC versus MML ([2]; 50 ng/mL of peptide, PBS-BSA buffer): 1.86
- Delta-Ct0-50 ([2]; MMC probes, PBS-BSA buffer): 7.08
- Delta-Ct0-50 ([2]; MML probes, PBS-BSA buffer): 5.22
- Delta-Ct of the combination of MMC oligonucleotides and peptide, compared with the other combinations ([2]; peptide concentrations tested (5 and 50 ng/mL), PBS-BSA): highest Delta-Ct
- loss of Delta-Ct in human plasma compared to PBS-BSA ([6]; 5 ng/mL of peptide, MMC probes): 0.26
- loss of Delta-Ct in human plasma compared to PBS-BSA ([6]; 50 ng/mL of peptide, MMC probes): 0.36
- Delta-Ct5-50 ([6]; human plasma, 5 vs 50 ng/mL peptide, MMC probes): 2.72
- Delta-Ct50-500 ([6]; human plasma, 50 vs 500 ng/mL peptide, MMC probes): 0.9
- dynamic range of detection ([6]; short (MMC) oligonucleotides): about 3 orders of magnitude
- Delta-Ct between sample with 40 ng of peptide and sample without peptide (background noise) (procalcitonin (rPCT) [7]): 1.4
- Ct mean value for the internal control ([8]; 0 ng/mL of PCT): 33.53±0.11
- Ct mean value for the internal control ([8]; 10 ng/mL of PCT): 34.23±0.40
- Ct of procalcitonin DRI (procalcitonin (rPCT) [9]; 0 ng/mL rPCT, 160 ng/mL of peptide): 35.9
- Ct of procalcitonin DRI, average value for the other peptide concentrations (procalcitonin (rPCT) [9]; 0 ng/mL rPCT, peptide concentrations other than 160 ng/mL): 36.98
- Ct of procalcitonin DRI, mean across the range of peptide concentrations (procalcitonin (rPCT) [9]; 0.1 ng/mL rPCT, Bitag 2 from 0 to 200 ng/mL): 34.38±0.15

Sequence: MRGSHHHHHHSVDESNNNGKKKKKKSVDESL (MRGSHHHHHHSVDES[Ado][Ado][Ado]GKKKKKKSVDESL-NH2) [Bitag 2′, long His tag and long Lys tag, three spacer units; N is 8-amino-2,4-dioxa octanoic acid]
- results obtained with Bitag 2 peptide repeated with this peptide ([2]; data not shown): reproduced and confirmed
